According to patent US11071729B2, “1′,3′-disubstituted-4-phenyl-3,4,5,6-tetrahydro-2H,1′H-[1,4′]bipyridinyl-2′-ones” (Janssen Pharmaceuticals, Inc., priority 2007, dated 2021):

Biological target: human mGluR2 receptor (Homo sapiens (Human), UniProt Q14416)
Experiment: [35S]GTPγS binding assay (PAM assay)
Type: biochemical
Details: membranes from CHO cells transfected with human mGluR2, in presence of glutamate at EC25 concentration, averages of duplicate values of 11-concentration response curves
Method: The [^35S]GTPγS binding assay is a functional membrane-based assay used to study G-protein coupled receptor (GPCR) function whereby incorporation of a non-hydrolysable form of GTP, [^35S]GTPγS (guanosine 5′-triphosphate, labelled with […] ^35S), is measured. The G-protein […] subunit catalyzes the exchange of guanosine 5′-diphosphate (GDP) by guanosine triphosphate (GTP) and on activation of the GPCR by an agonist, [^35S]GTPγS, becomes incorporated and cannot be cleaved to continue the exchange cycle (Harper (1998) Current Protocols in Pharmacology 2.6.1-10, John Wiley & Sons, Inc.). […] Here we describe the use of the [^35S]GTPγS binding assay using membranes from cells transfected with the human mGluR2 receptor and adapted from Schaffhauser et al ((2003) Molecular Pharmacology 4:798-810) for the detection of the positive allosteric modulation (PAM) properties of the compounds of this invention.
CHO-cells were cultured to pre-confluence and stimulated with 5 mM butyrate for 24 hours, prior to washing in PBS, and then collected by scraping in homogenisation buffer (50 mM Tris-HCl buffer, pH 7.4, 4° C.). Cell lysates were homogenized briefly (15 s) using an ultra-turrax homogenizer. The homogenate was centrifuged at 23 500×g for 10 minutes and the supernatant discarded. The pellet was resuspended in 5 mM Tris-HCl, pH 7.4 and centrifuged again (30 000×g, 20 min, 4° C.). The final pellet was resuspended in 50 mM HEPES, pH 7.4 and stored at −80° C. in appropriate aliquots before use. Protein concentration was determined by the Bradford method (Bio-Rad, USA) with bovine serum albumin as standard.
Measurement of mGluR2 positive allosteric modulatory activity of test compounds in membranes containing human mGluR2 was performed using frozen membranes that were thawed and briefly homogenized prior to pre-incubation in 96-well microplates (15 μg/assay well, 30 minutes, 30° C.) in assay buffer (50 mM HEPES pH 7.4, 100 mM NaCl, 3 mM MgCl2, 50 μM GDP, 10 μg/ml saponin,) with increasing concentrations of positive allosteric modulator (from 0.3 nM to 50 μM) and either a minimal pre-determined concentration of glutamate (PAM assay), or no added glutamate. For the PAM assay, membranes were pre-incubated with glutamate at EC25 concentration, i.e. a concentration that gives 25% of the maximal response glutamate, and is in accordance to published data (Pin et al. (1999) Eur. J. Pharmacol. 375:277-294). After addition of [^35S]GTPγS (0.1 nM, f.c.) to achieve a total reaction volume of 200 μl, microplates were shaken briefly and further incubated to allow [^35S]GTPγS incorporation on activation (30 minutes, 30° C.). The reaction was stopped by rapid vacuum filtration over glass-fibre filter plates (Unifilter 96-well GF/B filter plates, Perkin-Elmer, Downers Grove, USA) microplate using a 96-well plate cell harvester (Filtermate, Perkin-Elmer, USA), and then by washing three times with 300 μl of ice-cold wash buffer (Na2PO4.2H2O 10 mM, NaH2PO4.H2O 10 mM, pH=7.4). Filters were then air-dried, and 40 μl of liquid scintillation cocktail (Microscint-O) was added to each well, and membrane-bound [^35S]GTPγS was measured in a 96-well scintillation plate reader (Top-Count, Perkin-Elmer, USA). Non-specific [^35S]GTPγS binding is determined in the presence of cold 10 μM GTP.

Chain of human mGluR2 receptor (Q14416 19-872): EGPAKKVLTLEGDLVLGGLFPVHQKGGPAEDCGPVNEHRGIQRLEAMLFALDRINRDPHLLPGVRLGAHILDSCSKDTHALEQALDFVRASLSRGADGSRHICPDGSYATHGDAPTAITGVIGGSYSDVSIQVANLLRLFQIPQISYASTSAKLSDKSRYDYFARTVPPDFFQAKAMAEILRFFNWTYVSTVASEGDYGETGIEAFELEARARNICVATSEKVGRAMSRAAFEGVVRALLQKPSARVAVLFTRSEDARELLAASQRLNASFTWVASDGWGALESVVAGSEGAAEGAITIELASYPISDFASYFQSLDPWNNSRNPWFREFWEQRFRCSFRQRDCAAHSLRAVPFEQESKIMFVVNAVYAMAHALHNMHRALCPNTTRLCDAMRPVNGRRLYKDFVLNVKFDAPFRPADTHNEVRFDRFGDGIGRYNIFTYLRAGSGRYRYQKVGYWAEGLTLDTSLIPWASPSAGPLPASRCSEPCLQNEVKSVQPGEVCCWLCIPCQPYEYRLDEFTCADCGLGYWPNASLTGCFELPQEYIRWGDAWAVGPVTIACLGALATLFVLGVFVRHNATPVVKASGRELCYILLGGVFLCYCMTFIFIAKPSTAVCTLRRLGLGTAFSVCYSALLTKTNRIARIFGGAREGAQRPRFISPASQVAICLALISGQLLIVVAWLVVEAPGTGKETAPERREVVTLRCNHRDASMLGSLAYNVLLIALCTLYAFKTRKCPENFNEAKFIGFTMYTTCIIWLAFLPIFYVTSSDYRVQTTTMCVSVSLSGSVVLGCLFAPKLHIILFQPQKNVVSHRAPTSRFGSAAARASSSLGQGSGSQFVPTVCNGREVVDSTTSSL

GTPgS - hR2 PAM pEC50 | EC50 (read-out: GTPgS - hR2 PAM pEC50 (converted)) | SMILES
6.53 |  | O=c1c(Cl)c(N2CCC(c3ccccc3)CC2)ccn1CC1CC1 [Compound 1, 3′-Chloro-1′-cyclopropylmethyl-4-phenyl-3,4,5,6-tetrahydro-2H,1′H-[1,4′]bipyridinyl-2′-one]
6.57 |  | O=c1c(Cl)c(N2CCC(F)(c3ccccc3)CC2)ccn1CC1CC1 [Compound 17]
6.92 |  | O=c1c(Cl)c(N2CCC(c3ccc(F)cc3F)CC2)ccn1CC1CC1 [Compound 14]
7.06 |  | CCCCn1ccc(N2CCC(c3ccccc3C(C)(C)O)CC2)c(Cl)c1=O [Compound 28, 1′-Butyl-3′-chloro-4-[2-(1-hydroxy-1-methyl-ethyl)-phenyl]-3,4,5,6-tetrahydro-2H,1′H-[1,4′]bipyridinyl-2′-one]
6.45 |  | O=c1c(C(F)(F)F)c(N2CCC(c3ccccc3)CC2)ccn1CC1CC1 [Compound 4, 1′-Cyclopropylmethyl-4-phenyl-3′-trifluoromethyl-3,4,5,6-tetrahydro-2H,1′H-[1,4′]bipyridinyl-2′-one]
6.25 |  | O=c1c(Cl)c(N2CCC(CF)(c3ccccc3)CC2)ccn1CC1CC1 [Compound 21, 3′-Chloro-1′-cyclopropylmethyl-4-fluoromethyl-4-phenyl-3,4,5,6-tetrahydro-2H,1′H-[1,4′]bipyridinyl-2′-one]
6.58 |  | CC(C)CCn1ccc(N2CCC(F)(c3ccccc3)CC2)c(Cl)c1=O [Compound 23]
6.04 |  | O=c1c(C2CC2)c(N2CCC(c3ccccc3)CC2)ccn1CC1CC1 [Compound 8, 3′-Cyclopropyl-1′-cyclopropylmethyl-4-phenyl-3,4,5,6-tetrahydro-2H,1′H-[1,4′]bipyridinyl-2′-one]
6.34 |  | N#CC1(c2ccccc2)CCN(c2ccn(CC3CC3)c(=O)c2Cl)CC1 [Compound 6, 3′-Chloro-1′-cyclopropylmethyl-2′-oxo-4-phenyl-3,4,5,6,1′,2′-hexahydro-2H-[1,4′]bipyridinyl-4-carbonitrile]
6.41 |  | O=c1c(Cl)c(N2CCC(F)(c3ccccc3)CC2)ccn1CCC1CC1 [Compound 26]
7.12 |  | O=c1c(Cl)c(N2CCC(c3cccc(C(F)(F)F)c3)CC2)ccn1CC1CC1 [Compound 16]
6.83 |  | CCCCn1ccc(N2CCC(c3ccc(F)cc3F)CC2)c(Cl)c1=O [Compound 25]
6.64 |  | O=c1c(Cl)c(N2CCC(c3ccc(N4CCOCC4)cc3)CC2)ccn1CC1CC1 [Compound 13]
7.03 |  | O=c1c(Cl)c(N2CCC(c3ccccc3F)CC2)ccn1CC1CC1 [Compound 12]
6.71 |  | CC(C)Cn1ccc(N2CCC(c3ccccc3)CC2)c(Cl)c1=O [Compound 19]
6.90 |  | O=c1c(Cl)c(N2CCC(c3ccccc3)CC2)ccn1Cc1ccc(OC(F)(F)F)cc1 [Compound 5, 3′-Chloro-4-phenyl-1′-(4-trifluoromethoxybenzyl)-3,4,5,6-tetrahydro-2H,1′H-[1,4′]bipyridinyl-2′-one]
6.91 |  | O=c1c(Cl)c(N2CCC(OCCF)(c3ccccc3)CC2)ccn1CC1CC1 [Compound 20, 3′-Chloro-1′-cyclopropylmethyl-4-(2-fluoro-ethoxy)-4-phenyl-3,4,5,6-tetrahydro-2H,1′H-[1,4′]bipyridinyl-2′-one]
6.05 |  | CCCCn1ccc(N2CCC(CO)(c3ccccc3)CC2)c(Cl)c1=O [Compound 22, 1′-Butyl-3′-chloro-4-hydroxymethyl-4-phenyl-3,4,5,6-tetrahydro-2H,1′H-[1,4′]bipyridinyl-2′-one]
6.88 |  | O=c1c(Br)c(N2CCC(c3ccccc3)CC2)ccn1CC1CC1 [Compound 3, 3′-Bromo-1′-cyclopropylmethyl-4-phenyl-3,4,5,6-tetrahydro-2H,1′H-[1,4′]bipyridinyl-2′-one]
7.20 |  | CC(C)CCn1ccc(N2CCC(c3ccccc3)CC2)c(Cl)c1=O [Compound 18]
 | 240 nM | CCCCn1ccc(N2CCC(F)(c3ccccc3)CC2)c(Cl)c1=O [Compound 7]
6.91 |  | CC(C)CCn1ccc(N2CCC(c3ccc(F)cc3F)CC2)c(Cl)c1=O [Compound 24]
6.57 |  | CC(C)(O)c1ccc(C2CCN(c3ccn(CC4CC4)c(=O)c3Cl)CC2)cc1 [Compound 9, 3′-Chloro-1′-cyclopropylmethyl-4-[4-(1-hydroxy-1-methyl-ethyl)-phenyl]-3,4,5,6-tetrahydro-2H,1′H-[1,4′]bipyridinyl-2′-one]
7.11 |  | CCCCCn1ccc(N2CCC(c3ccccc3)CC2)c(Cl)c1=O [Compound 11]
6.88 |  | O=c1c(Cl)c(N2CCC(c3ccccc3)CC2)ccn1CCC1CC1 [Compound 10]
6.46 |  | CCCCn1ccc(N2CCC(c3ccc(C(C)(C)O)cc3)CC2)c(Cl)c1=O [Compound 27]
6.88 |  | CCCCn1ccc(N2CCC(c3ccc(C(C)(C)O)cc3F)CC2)c(Cl)c1=O [Compound 29, 1′-Butyl-3′-chloro-4-[2-fluoro-4-(1-hydroxy-1-methyl-ethyl)-phenyl]-3,4,5,6-tetrahydro-2H,1′H-[1,4′]bipyridinyl-2′-one]

SMILES | GTPgS - hR2 PAM pEC50 | EC50 (read-out: GTPgS - hR2 PAM pEC50 (converted))
O=c1c(Cl)c(N2CCC(c3ccccc3Cl)CC2)ccn1CC1CC1 [Compound 15] | 7.00 | 
